# Experimental data from patent US9028856B2, “Synergistic pesticide compositions” (priority 2008, dated 2015).
# What was measured:
# [1] = test system: Argentine ant, Linepithema humile; assay: Knockdown/mortality of ant workers under continuous exposure on treated glazed tile; details: glazed tile
# In short: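 0.5% AI imidacloprid in acetone, alone or with 0.1, 1.0 or 5.0% additive (benzenepropanoic acid, oleic acid, methyl oleate, methyl linoleate, methyl palmitate or BHA), 1 ml dried overnight on glazed tile (~161 cm^2). Ten workers confined under continuous exposure, water from 3 h; knockdown/mortality scored at intervals and 24 h; ≥3 replicates.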
# [2] = test system: Odorous House ant, Tapinoma sessile; assay: as above; type: in vivo
# In short: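 Each tile surface (about 5″×5″) was treated, left to dry overnight and tested in a minimum of three replicates.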
# [3] = test system: Red Imported Fire ant (RIFA), Solenopsis invicta; assay: as above; type: in vivo
# Source text: Treatments were allowed to dry overnight. […] Treatments were replicated minimum three times.
# Treatments were allowed to dry overnight. […] Treatments were replicated a minimum of three times.
# [4] = test system: susceptible/normal German cockroach (Monheim strain), Blattella germanica; assay: Knockdown/mortality of male cockroaches under continuous exposure on treated glazed tile; type: in vivo
# In short: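 Male cockroaches continuously exposed on treated glazed tile, dried overnight before exposure; at least three replicates. Knockdown/mortality scored at intervals from 5 or 10 min, over runs lasting 20 min to 24 h depending on test.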
# [5] = Table 46, Trial 1, fipronil/Compound A in acetone
# [6] = Table 49, fipronil/adjuvant in acetone
# [7] = 2 hr, Table 46, Trial 1, fipronil/Compound A in acetone
# [8] = 2 hr, Table 49, fipronil/adjuvant in acetone
# [9] = 4 hr, Table 46, Trial 1, fipronil/Compound A in acetone
# [10] = 30 min, Table 51, fipronil/adjuvant in acetone, glazed tile
# [11] = 60 min, Table 51, fipronil/adjuvant in acetone, glazed tile
# [12] = 2 hr, Table 51, fipronil/adjuvant in acetone, glazed tile
# [13] = Table 51, fipronil/adjuvant in acetone, glazed tile
# [14] = Table 52, fipronil/adjuvant in acetone, glazed tile
# [15] = Table 53, fipronil/adjuvant in acetone, glazed tile, Monheim strain
# [16] = Table 27, aqueous deltamethrin/adjuvant
# [17] = Table 57, Argentine ant, continuous exposure
# [18] = Table 60, Red Imported Fire ant, glazed tile, continuous exposure
# [19] = Table 61, German cockroach (Monheim), glazed tile, continuous exposure
# [20] = Table 4 (Ex. 1), continuous exposure
# [21] = Table 7 (Ex. 4), continuous exposure
# [22] = Table 8 (Ex. 5), continuous exposure
# [23] = Table 10 (Ex. 7), continuous exposure
# [24] = Table 12 (Ex. 9), continuous exposure
# [25] = Table 14 (Ex. 11), continuous exposure
# [26] = Table 16 (Ex. 13), continuous exposure
# [27] = Table 19 (Ex. 16), continuous exposure
# [28] = Table 20 (Ex. 17), continuous exposure
# [29] = Table 47, Trial 2, fipronil/Compound A in acetone
smiles,measurement,setting,value
N#Cc1nn(-c2c(Cl)cc(C(F)(F)F)cc2Cl)c(N)c1[S+]([O-])C(F)(F)F (stereo not drawn) [Fipronil (.01%)],Average % Mortality after 5 min,[1]; [5],0%
same,Average % Mortality after 15 min,[1]; [5],0%
same,Average % Mortality after 30 min,[1]; [5],0%
same,Average % Mortality after 30 min,[1]; [6],0%
same,Average % Mortality after 60 min,[1]; [5],0%
same,Average % Mortality after 60 min,[1]; [6],0%
same,Average % Mortality after 2 hr,[1]; [7],0%
same,Average % Mortality after 2 hr,[1]; [8],0%
same,Average % Mortality after 3 hr,[1]; [6],0%
same,Average % Mortality after 4 hr,[1]; [9],47%
same,Average % Mortality after 24 hr,[1]; [5],100%
same,Average % Mortality after 24 hr,[1]; [6],100%
same,Average % Mortality after 30 min,[2]; [10],0%
same,Average % Mortality after 60 min,[2]; [11],0%
same,Average % Mortality after 2 hr,[2]; [12],6%
same,Average % Mortality after 24 hr,[2]; [13],100%
same,Average % Mortality after 30 min,[3]; [14],0%
same,Average % Mortality after 60 min,[3]; [14],0%
same,Average % Mortality after 2 hr,[3]; [14],0%
same,Average % Mortality after 3 hr,[3]; [14],0%
same,Average % Mortality after 24 hr,[3]; [14],100%
same,Average % Knockdown & Mortality after 60 min,[4]; [15],0%
same,Average % Knockdown & Mortality after 3 hr,[4]; [15],7%
same,Average % Knockdown & Mortality after 5 hr,[4]; [15],7%
same,Average % Knockdown & Mortality after 24 hr,[4]; [15],100%
CC[S+]([O-])c1c(C#N)nn(-c2c(Cl)cc(C(F)(F)F)cc2Cl)c1N (stereo not drawn) [ethiprole],mortality in 2 hours,[2]; ethiprole 0.01% in the absence of the adjuvant (FIG. 53),around 4%
same,mortality in 3 hours,[3]; ethiprole 0.01% in the absence of the adjuvant (FIG. 54),< 5%
same,mortality from 5 to 25 hours,[4]; ethiprole 0.01% in the absence of the adjuvant (FIG. 55),5-15%
CC1(C)[C@H](C(=O)O[C@H](C#N)c2cccc(Oc3ccccc3)c2)[C@@H]1C=C(Br)Br [deltamethrin (1%)],Average % Mortality after 10 min,"[1]; 10 min, Table 27, aqueous deltamethrin/adjuvant",9%
same,Average % Mortality after 15 min,[1]; [16],33%
same,Average % Mortality after 20 min,"[1]; 20 min, Table 27, aqueous deltamethrin/adjuvant",67%
same,Average % Mortality after 30 min,[1]; [16],82%
same,Average % Mortality after 20 min,"[2]; 20 min, Table 30, aqueous deltamethrin/adjuvant, glazed tile",43%
same,Average % Mortality after 60 min,"[2]; 60 min, Table 30, aqueous deltamethrin/adjuvant, glazed tile",80%
same,Average % Mortality after 90 min,"[2]; 90 min, Table 30, aqueous deltamethrin/adjuvant, glazed tile",90%
same,Average % Mortality after 2 hr,"[2]; 2 hr, Table 30, aqueous deltamethrin/adjuvant, glazed tile",93%
same,Average % Mortality after 10 min,"[3]; 10 min, Table 31, aqueous deltamethrin/adjuvant, glazed tile",37%
same,Average % Mortality after 20 min,"[3]; 20 min, Table 31, aqueous deltamethrin/adjuvant, glazed tile",100%
same,Average % Mortality after 40 min,"[3]; 40 min, Table 31, aqueous deltamethrin/adjuvant, glazed tile",100%
same,Average % Mortality after 60 min,"[3]; Table 31, aqueous deltamethrin/adjuvant, glazed tile",100%
same,Average % Mortality after 4 min,"[4]; 4 min, Table 32, aqueous deltamethrin/adjuvant, glazed tile, Monheim strain",27%
same,Average % Mortality after 8 min,"[4]; 8 min, Table 32, aqueous deltamethrin/adjuvant, glazed tile, Monheim strain",100%
same,Average % Mortality after 12 min,"[4]; 12 min, Table 32, aqueous deltamethrin/adjuvant, glazed tile, Monheim strain",100%
same,Average % Mortality after 20 min,"[4]; 20 min, Table 32, aqueous deltamethrin/adjuvant, glazed tile, Monheim strain",100%
CC[S+]([O-])c1c(C#N)nn(-c2c(Cl)cc(C(F)(F)F)cc2Cl)c1N (stereo not drawn) [Ethiprole (1%)],Average % Mortality after 30 min,[1]; [17],0%
same,Average % Mortality after 45 min,"[1]; Table 57, Argentine ant, continuous exposure, 45 min",0%
same,Average % Mortality after 60 min,[1]; [17],0%
same,Average % Mortality after 15 min,"[1]; Table 57, Argentine ant, continuous exposure, adjuvant = Compound A 1% + Compound B 0.5%",0%
same,Average % Knockdown & Mortality after 30 min,"[2]; Table 59, Odorous House ant, glazed tile, continuous exposure, 30 min",0%
same,Average % Knockdown & Mortality after 45 min,"[2]; Table 59, Odorous House ant, glazed tile, continuous exposure, 45 min",0%
same,Average % Knockdown & Mortality after 60 min,"[2]; Table 59, Odorous House ant, glazed tile, continuous exposure, 60 min",3%
same,Average % Knockdown & Mortality after 2 hr,"[2]; Table 59, Odorous House ant, glazed tile, continuous exposure, 2 hr",7%
same,Average % Knockdown & Mortality after 15 min,"[2]; Table 59, Odorous House ant, glazed tile, continuous exposure, adjuvant = Compound A 1% + Compound B 0.5%, 15 min",0%
same,Average % Mortality after 1 hr,"[3]; Table 60, Red Imported Fire ant, glazed tile, continuous exposure, 1 hr",0%
same,Average % Mortality after 1.5 hr,"[3]; Table 60, Red Imported Fire ant, glazed tile, continuous exposure, 1.5 hr",0%
same,Average % Mortality after 2 hr,[3]; [18],0%
same,Average % Mortality after 3 hr,[3]; [18],10%
same,Average % Mortality after 30 min,"[3]; Table 60, Red Imported Fire ant, glazed tile, continuous exposure, adjuvant = Compound A 1% + Compound B 0.5%",0%
same,Average % Knockdown & Mortality after 3 hr,[4]; [19],13%
same,Average % Knockdown & Mortality after 5 hr,[4]; [19],27%
same,Average % Knockdown & Mortality after 24 hr,[4]; [19],73%
same,Average % Knockdown & Mortality after 1 hr,"[4]; Table 61, German cockroach (Monheim), glazed tile, continuous exposure, adjuvant = Compound A 1% + Compound B 0.5%, 1 hr",0%
CNC(=O)Oc1cccc2c1OC(C)(C)O2 [bendiocarb],toxicity / efficacy of the substance alone (summary in words),"[2]; odorous house ant, glazed tile",no KD/mortality
O=[N+]([O-])NC1=NCCN1Cc1ccc(Cl)nc1 [imidacloprid],Average % Knockdown & Mortality after 2 hr,"[1]; 2 hr, Table 22, imidacloprid/tritylchloride in acetone, continuous exposure",0%
same,Average % Knockdown & Mortality after 2 hr,"[1]; 2 hr, Table 25, imidacloprid/dibutyl sebacate (DBS) in acetone",0%
same,Average % Knockdown & Mortality after 4 hr,"[1]; 4 hr, Table 25, imidacloprid/dibutyl sebacate (DBS) in acetone",0%
same,Average % Knockdown & Mortality after 5 hr,"[1]; 5 hr, Table 22, imidacloprid/tritylchloride in acetone, continuous exposure",4%
same,Average % Knockdown & Mortality after 3 hr,[1]; [20],0%
same,Average % Knockdown & Mortality after 7 hr,[1]; [20],0%
same,Average % Knockdown & Mortality after 3 hr,[1]; [21],3%
same,Average % Knockdown & Mortality after 7 hr,[1]; [21],3%
same,Average % Knockdown & Mortality after 15 min,[1]; [22],0%
same,Average % Knockdown & Mortality after 4 hr,[1]; [22],7%
same,Average % Knockdown & Mortality after 15 min,[1]; [23],0%
same,Average % Knockdown & Mortality after 4 hr,[1]; [23],0%
same,Average % Knockdown & Mortality after 3 hr,[1]; [24],0%
same,Average % Knockdown & Mortality after 7 hr,[1]; [24],0%
same,Average % Knockdown & Mortality after 2 hr,[1]; [25],0%
same,Average % Knockdown & Mortality after 4 hr,[1]; [25],0%
same,Average % Knockdown & Mortality after 2 hr,[1]; [26],14%
same,Average % Knockdown & Mortality after 18 hr,[1]; [26],17%
same,Average % Knockdown & Mortality after 4 hr,[1]; [27],0%
same,Average % Knockdown & Mortality after 6 hr,[1]; [27],7%
same,Average % Knockdown & Mortality after 2 hr,[1]; [28],0%
same,Average % Knockdown & Mortality after 4 hr,[1]; [28],7%
N#Cc1nn(-c2c(Cl)cc(C(F)(F)F)cc2Cl)c(N)c1[S+]([O-])C(F)(F)F (stereo not drawn) [Fipronil (.001%)],Average % Mortality after 5 min,[1]; [5],0%
same,Average % Mortality after 5 min,[1]; [29],0%
same,Average % Mortality after 15 min,[1]; [5],0%
same,Average % Mortality after 15 min,[1]; [29],0%
same,Average % Mortality after 30 min,[1]; [5],0%
same,Average % Mortality after 30 min,[1]; [29],0%
same,Average % Mortality after 30 min,[1]; [6],0%
same,Average % Mortality after 60 min,[1]; [5],0%
same,Average % Mortality after 60 min,[1]; [29],0%
same,Average % Mortality after 60 min,[1]; [6],0%
same,Average % Mortality after 2 hr,[1]; [7],0%
same,Average % Mortality after 2 hr,"[1]; 2 hr, Table 47, Trial 2, fipronil/Compound A in acetone",0%
same,Average % Mortality after 2 hr,[1]; [8],0%
same,Average % Mortality after 3 hr,[1]; [6],3%
same,Average % Mortality after 4 hr,[1]; [9],74%
same,Average % Mortality after 4 hr,"[1]; 4 hr, Table 47, Trial 2, fipronil/Compound A in acetone",28%
same,Average % Mortality after 24 hr,[1]; [5],100%
same,Average % Mortality after 24 hr,[1]; [29],100%
same,Average % Mortality after 24 hr,[1]; [6],100%
same,Average % Mortality after 30 min,[2]; [10],0%
same,Average % Mortality after 60 min,[2]; [11],0%
same,Average % Mortality after 2 hr,[2]; [12],0%
same,Average % Mortality after 24 hr,[2]; [13],100%
same,Average % Mortality after 30 min,[3]; [14],0%
same,Average % Mortality after 60 min,[3]; [14],0%
same,Average % Mortality after 2 hr,[3]; [14],0%
same,Average % Mortality after 3 hr,[3]; [14],25%
same,Average % Mortality after 24 hr,[3]; [14],100%
same,Average % Knockdown & Mortality after 60 min,[4]; [15],0%
same,Average % Knockdown & Mortality after 3 hr,[4]; [15],0%
same,Average % Knockdown & Mortality after 5 hr,[4]; [15],0%
same,Average % Knockdown & Mortality after 24 hr,[4]; [15],40%
